Data: patent US10138229B2, “Heteroaromatic compounds as BTK inhibitors” (Boehringer Ingelheim International GmbH, priority 2012, dated 2018)

Legend:
EGFR = EGFR (Homo sapiens (Human), UniProt P00533); experiment: Inhibition of EGFR autophosphorylation in A431 human epithelial cells stimulated with EGF; type: cell-based; conditions: EGF 60 ng/mL, phospho EGFR, read-out: A431 p-EGFR IC50
Description: The compounds described herein show a range of selectivities against EGFR as measured in cellular assays (BTK activity measured by CD69 expression in primary CD19^+ cells; EGFR activity measured by EGFR phosphorylation in A431 cells).
Inhibition of EGFR Autophosphorylation in A431 Human Epithelial Cells Stimulated with Epithelial Growth Factor
A431 cells (ATCC # CRL-1555 FZ) are thawed and plated in DMEM containing 10% FBS in a 384-well tissue culture treated plate at 15,000 cells/well. After incubating for 24 hours at 37° C., 5% CO2, the cells are treated with test compound (1% DMSO final concentration) and incubated for 16 hours at 37° C., 5% CO2. EGF (Millipore, 01-107) is added at a final concentration of 60 ng/mL and incubated for 10 minutes. The medium is removed, the cells are lysed, and phospho EGFR is measured (Meso Scale Diagnostics, N31CB-1).

[1] = target: full-length human His-tagged BTK (Homo sapiens (Human), UniProt Q06187); experiment: BTK Assay (HTRF, Cisbio KinEASE-TK); type: biochemical; conditions: 6 nM BTK, 30 uM ATP, 15 min preincubation
full-length human His-tagged BTK, sequence (Q06187 whole entry): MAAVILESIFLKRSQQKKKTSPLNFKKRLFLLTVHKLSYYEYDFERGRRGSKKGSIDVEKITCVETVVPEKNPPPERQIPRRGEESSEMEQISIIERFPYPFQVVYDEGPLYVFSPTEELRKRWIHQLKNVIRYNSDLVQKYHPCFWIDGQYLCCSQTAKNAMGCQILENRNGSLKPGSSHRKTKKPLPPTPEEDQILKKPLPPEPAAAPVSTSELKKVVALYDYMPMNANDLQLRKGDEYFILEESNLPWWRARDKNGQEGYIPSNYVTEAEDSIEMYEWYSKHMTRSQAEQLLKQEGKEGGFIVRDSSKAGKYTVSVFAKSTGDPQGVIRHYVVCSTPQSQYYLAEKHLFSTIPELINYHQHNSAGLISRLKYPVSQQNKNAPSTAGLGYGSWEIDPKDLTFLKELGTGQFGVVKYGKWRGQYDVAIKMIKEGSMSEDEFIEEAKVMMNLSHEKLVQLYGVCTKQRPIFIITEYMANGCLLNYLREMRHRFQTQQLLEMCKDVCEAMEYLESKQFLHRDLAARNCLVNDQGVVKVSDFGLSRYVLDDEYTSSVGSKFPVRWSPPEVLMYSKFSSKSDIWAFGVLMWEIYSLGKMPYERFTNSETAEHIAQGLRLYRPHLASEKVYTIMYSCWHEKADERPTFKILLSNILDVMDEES
Procedure: An HTRF assay (Cisbio KinEASE-TK cat #62TKOPEC) was performed to quantitate the ability of test compounds to inhibit BTK mediated phosphorylation of substrate. Assays were assembled in 384 well plates where 6 nM of full-length human His-tagged BTK (Life Technologies cat # PV3587) and test compound at varying concentrations were preincubated for 15 minutes at 28° C. Then, 1 uM of TK substrate-biotin and 30 uM ATP were added and incubated for an additional 30 minutes at 28° C.

BTK = BTK (Homo sapiens (Human), UniProt Q06187); experiment: Inhibition of B-cell activation measured by CD69 expression in primary CD19+ cells; type: cell-based; conditions: primary CD19+ cells stimulated with anti-human IgD, CD69 expression by flow cytometry
BTK, sequence (Q06187 whole entry): as above
Procedure: Cells were collected and plated in a 96 flat bottom plate at a concentration of 2×10^5/well in RPMI media containing 10% FBS, rested for 1 hour at 37° c. Cells were treated with inhibitor in duplicates or vehicle control in 1% DMSO final concentration for 1 hour at 37° c., 5% CO2. […] B cells were analyzed by flow cytometry using a BD LSRII or BD FACsCanto Flow Cytometer. Viable cells were gated, and CD69 percentage was determined using FlowJo software.

EGFR, sequence (P00533 25-1210): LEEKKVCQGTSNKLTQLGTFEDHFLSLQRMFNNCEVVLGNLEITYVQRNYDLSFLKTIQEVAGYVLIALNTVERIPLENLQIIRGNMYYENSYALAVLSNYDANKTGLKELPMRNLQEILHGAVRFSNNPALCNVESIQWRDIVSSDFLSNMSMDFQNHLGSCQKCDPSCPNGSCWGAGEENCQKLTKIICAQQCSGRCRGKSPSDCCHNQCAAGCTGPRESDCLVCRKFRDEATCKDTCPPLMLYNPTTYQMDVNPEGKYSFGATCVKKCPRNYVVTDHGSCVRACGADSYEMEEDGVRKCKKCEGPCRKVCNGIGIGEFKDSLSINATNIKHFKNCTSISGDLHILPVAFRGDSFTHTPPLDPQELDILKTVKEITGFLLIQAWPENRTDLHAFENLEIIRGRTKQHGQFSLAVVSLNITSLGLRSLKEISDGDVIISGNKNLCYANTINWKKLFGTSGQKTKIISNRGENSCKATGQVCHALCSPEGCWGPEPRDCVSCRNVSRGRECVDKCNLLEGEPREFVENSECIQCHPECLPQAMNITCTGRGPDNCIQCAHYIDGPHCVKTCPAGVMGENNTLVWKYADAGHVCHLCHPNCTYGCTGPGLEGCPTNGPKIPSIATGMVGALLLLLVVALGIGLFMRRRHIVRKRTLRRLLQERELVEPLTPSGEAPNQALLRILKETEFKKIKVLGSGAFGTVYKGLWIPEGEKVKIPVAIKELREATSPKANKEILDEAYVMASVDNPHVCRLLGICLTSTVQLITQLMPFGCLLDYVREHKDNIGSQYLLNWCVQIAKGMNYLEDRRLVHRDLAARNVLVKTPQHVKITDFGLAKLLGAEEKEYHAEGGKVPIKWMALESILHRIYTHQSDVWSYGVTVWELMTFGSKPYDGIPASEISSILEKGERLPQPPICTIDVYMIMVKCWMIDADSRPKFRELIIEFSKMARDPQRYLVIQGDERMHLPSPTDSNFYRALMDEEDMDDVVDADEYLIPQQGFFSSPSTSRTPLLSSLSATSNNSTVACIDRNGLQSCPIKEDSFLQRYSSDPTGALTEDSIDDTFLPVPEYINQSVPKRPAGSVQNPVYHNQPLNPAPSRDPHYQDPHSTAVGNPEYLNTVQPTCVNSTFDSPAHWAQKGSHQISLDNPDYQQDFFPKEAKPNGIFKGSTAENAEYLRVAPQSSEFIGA

IC50 (EGFR) | IC50 [1] | IC50 (BTK) | Compound
> 10000 nM | 4.9 nM | 20 nM | C=CC(=O)N1CC[C@]2(C1)C[C@H](n1cc(C(N)=O)c(-c3ccc(Oc4ccccc4)cc3)n1)C2 [Example 40]
430 nM | 0.73 nM | 1 nM | CC#CC(=O)N1CC2(CC(n3nc(-c4ccc(Oc5ccccc5)cc4)c(C(N)=O)c3N)C2)C1 [Example 41]
120 nM | 1.2 nM | 2 nM | C=CC(=O)N1CCC[C@@H](c2nc(-c3ccc(Oc4ccccc4)cc3)c(C(N)=O)[nH]2)C1 [Example 46]
1800 nM | 2.1 nM | 2.5 nM | CC#CC(=O)N1CC[C@]2(C1)C[C@@H](c1nc(-c3ccc(Oc4ccccc4)cc3)c(C(N)=O)s1)C2 [Example 78]
790 nM | 0.79 nM | 0.9 nM | C=CC(=O)N1CC[C@]2(C1)C[C@@H](n1nc(-c3ccc(Oc4ccccc4)cc3)c(C(N)=O)c1N)C2 [Example 81]
> 10000 nM | 13 nM | 30 nM | CC#CC(=O)N1CC2(CC(n3nc(-c4ccc(OC(C)C)cc4)c(C(N)=O)c3N)C2)C1 [Example 106]
4200 nM | 3.3 nM | 8.2 nM | CC#CC(=O)N1CC2(CC(n3nc(-c4ccc(OCCC)cc4)c(C(N)=O)c3N)C2)C1 [Example 107]
5800 nM | 6.7 nM | 41 nM | C=CC(=O)N1CC2(CC(n3nc(-c4ccc(OC5CC5)cc4)c(C(N)=O)c3N)C2)C1 [Example 112]
6400 nM | 3.5 nM | 7.8 nM | CC#CC(=O)N1CC2(CC(n3nc(-c4ccc(OCC(F)(F)F)cc4)c(C(N)=O)c3N)C2)C1 [Example 115]
> 10000 nM | 6.3 nM | 58 nM | CC#CC(=O)N1CC[C@]2(C1)C[C@H](n1nc(-c3ccc(OC)cc3Cl)c(C(N)=O)c1N)C2 [Example 158]
1200 nM | 1.4 nM | 4.5 nM | CC#CC(=O)N1CC[C@]2(C1)C[C@H](n1nc(-c3ccc(OC(F)(F)F)cc3)c(C(N)=O)c1N)C2 [Example 160]
400 nM | 1.1 nM | 2.1 nM | CC#CC(=O)N1CC[C@]2(C1)C[C@H](n1nc(-c3ccc(OCCC)c(F)c3)c(C(N)=O)c1N)C2 [Example 161]
5200 nM | 4.8 nM | 15 nM | C=CC(=O)N1CC[C@]2(C1)C[C@H](n1nc(-c3ccc(OCC(F)(F)F)cc3)c(C(N)=O)c1N)C2 [Example 163]
420 nM | 0.5 nM | 1.5 nM | CC#CC(=O)N1CC[C@]2(C1)C[C@H](n1nc(-c3ccc(OCC(F)(F)F)cc3)c(C(N)=O)c1N)C2 [Example 164]
3700 nM | 15 nM | 10 nM | C=CC(=O)N1CC[C@]2(C1)C[C@H](n1nc(-c3ccc(OCCC)c(F)c3)c(C(N)=O)c1N)C2 [Example 165]
